Legend:
[1] = target: human activated kallikrein enzyme (Homo sapiens, UniProt P03952); assay: Plasma kallikrein inhibition, fluorogenic PFR-AMC substrate, 500 pM activated kallikrein format; type: biochemical; conditions: 500 pM activated kallikrein, 300 uM PFR-AMC, 30 min preincubation, 10 min reaction; read-out: Primary Dose Response Assay: Average EC50
Summary of the method: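 500 pM enz + cpd, 30 min RT preinc; start w/ PFR-AMC 300 uM; 10 min RT; Ex380/Em460. Buffer: Tris 20 mM pH 7.5, EDTA 1 mM, NaCl 150 mM, PEG-400 0.1%, Triton 0.1%. EC50.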

plasma kallikrein = target: T1, plasma kallikrein (Homo sapiens, UniProt P03952); assay: Neat human plasma assay, FXIIa contact pathway-activated, PFR-AMC substrate; type: biochemical; conditions: citrated human plasma 78% final, 10 nM human FXIIa, 100 μM PFR-AMC; read-out: Human Plasma Assay: IC90
T1 construct: from tissue
T1 sequence (P03952 391-638 limits assumed): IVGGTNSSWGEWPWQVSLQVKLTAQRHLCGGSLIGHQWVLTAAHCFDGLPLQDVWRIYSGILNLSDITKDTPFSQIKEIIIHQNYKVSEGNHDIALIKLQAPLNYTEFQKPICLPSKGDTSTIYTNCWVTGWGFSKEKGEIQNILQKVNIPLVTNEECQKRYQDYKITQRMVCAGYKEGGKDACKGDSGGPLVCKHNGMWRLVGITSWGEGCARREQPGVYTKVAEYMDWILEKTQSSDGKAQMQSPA
T1 sequence (P03952 20-390 partner limits assumed): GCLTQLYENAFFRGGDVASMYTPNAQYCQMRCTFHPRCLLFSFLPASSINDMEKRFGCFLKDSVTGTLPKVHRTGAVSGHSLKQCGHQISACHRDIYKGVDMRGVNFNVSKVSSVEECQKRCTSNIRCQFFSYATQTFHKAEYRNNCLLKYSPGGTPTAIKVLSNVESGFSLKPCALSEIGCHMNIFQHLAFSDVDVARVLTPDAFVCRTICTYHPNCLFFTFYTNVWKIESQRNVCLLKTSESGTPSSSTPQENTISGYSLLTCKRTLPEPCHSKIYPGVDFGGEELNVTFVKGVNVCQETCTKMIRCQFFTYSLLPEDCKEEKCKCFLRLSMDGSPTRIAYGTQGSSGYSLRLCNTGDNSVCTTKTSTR
Summary of the method: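 Citrated human plasma (78% final) with compound, contact-activated by 10 nM human FXIIa in pKal buffer pH 7.5, with 100 μM PFR-AMC. Fluorescence (360/480 nm) followed 5 min at room temperature; rates versus concentration fitted by 4-parameter equation for IC50/IC90.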

Chain of human activated kallikrein enzyme (P03952 391-638 limits assumed): as the sequence (P03952 391-638 limits assumed) above
Chain of human activated kallikrein enzyme (P03952 20-390 partner limits assumed): as the sequence (P03952 20-390 partner limits assumed) above

EC50 [1] [µM]	IC90 (plasma kallikrein) [µM]	Compound
< 0.001	0.4 to 1.5	CN1C(=O)CN(c2cc(C3CC3)cn3cc(CNc4cc(NC(=O)[C@H]5C[C@@H]5c5cc(Cl)ccn5)ncn4)nc23)C1=O (single isomer, unassigned) [Example I-264]
0.001 to 0.01	10 to 48	O=C(Nc1cncc(NCc2cn3cc(C4CC4)ccc3n2)c1)[C@H]1C[C@@H]1c1cccc(Cl)c1 (racemic) [Example 574, rac-(1S*,2S*)-2-(3-chlorophenyl)-N-(5-(((6-cyclopropylimidazo[1,2-a]pyridin-2-yl)methyl)amino)pyridin-3-yl)cyclopropane-1-carboxamide]
< 0.001	< 0.4	COc1cc(N2CC(=O)N(C)C2=O)c2nc([C@@H](C)Nc3cc(NC(=O)[C@H]4C[C@@H]4c4nccc(C)n4)ncn3)cn2c1 [Example 415, (1S,2S)-N-(6-(((R)-1-(6-methoxy-8-(3-methyl-2,4-dioxoimidazolidin-1-yl)imidazo[1,2-a]pyridin-2-yl)ethyl)amino)pyrimidin-4-yl)-2-(4-methylpyrimidin-2-yl)cyclopropane-1-carboxamide]
< 0.001	< 0.4	Cc1ccnc([C@H]2C[C@@H]2C(=O)Nc2cc(OCc3cn4cc(C5CC5)cc(N5CC6(COC6)OC5=O)c4n3)nc(C)n2)n1 [Example 553, (1S,2S)-N-(6-((6-cyclopropyl-8-(6-oxo-2,5-dioxa-7-azaspiro[3.4]octan-7-yl)imidazo[1,2-a]pyridin-2-yl)methoxy)-2-methylpyrimidin-4-yl)-2-(4-methylpyrimidin-2-yl)cyclopropane-1-carboxamide]
< 0.001	10 to 48	CS(=O)(=O)Nc1cc(C2CC2)cn2cc(CNc3ccnc(NC(=O)[C@H]4C[C@@H]4c4cccc(Cl)c4)c3)nc12 [Example 126, (1S,2S)-2-(3-chlorophenyl)-N-(4-(((6-cyclopropyl-8-(methylsulfonamido)imidazo[1,2-a]pyridin-2-yl)methyl)amino)pyridin-2-yl)cyclopropane-1-carboxamide]
< 0.001	0.4 to 1.5	Cc1nc([C@H]2C[C@@H]2C(=O)Nc2cc(NCc3cn4cc(C5CC5)cc(N5CC(=O)N(C)C5=O)c4n3)ncn2)ncc1F (racemic) [Example 489, rac-(1S*,2S*)—N-(6-(((6-cyclopropyl-8-(3-methyl-2,4-dioxoimidazolidin-1-yl)imidazo[1,2-a]pyridin-2-yl)methyl)amino)pyrimidin-4-yl)-2-(5-fluoro-4-methylpyrimidin-2-yl)cyclopropane-1-carboxamide]
< 0.001	< 0.4	Cc1ccnc([C@H]2C[C@@H]2C(=O)Nc2cc(N[C@H](C)c3cn4cc(C5CC5)cc(N5C[C@@H]6C[C@@H]6C5=O)c4n3)ncn2)n1 (racemic) [Example 443, (1S,2S)—N-(6-(((R)-1-(6-cyclopropyl-8-((1R*,5S*)-2-oxo-3-azabicyclo[3.1.0]hexan-3-yl)imidazo[1,2-a]pyridin-2-yl)ethyl)amino)pyrimidin-4-yl)-2-(4-methylpyrimidin-2-yl)cyclopropane-1-carboxamide]
< 0.001	0.4 to 1.5	Cc1ccnc([C@H]2C[C@@H]2C(=O)Nc2cc(N3C[C@@H](O)C[C@@H]3c3cn4cc(C5CC5)cc(N5CC(=O)N(C)C5=O)c4n3)ncn2)n1 (relative stereo) [Example 473, rac-(1S*,2S*)-N-(6-((2R,4S)-2-(6-cyclopropyl-8-(3-methyl-2,4-dioxoimidazolidin-1-yl)imidazo[1,2-a]pyridin-2-yl)-4-hydroxypyrrolidin-1-yl)pyrimidin-4-yl)-2-(4-methylpyrimidin-2-yl)cyclopropane-1-carboxamide]
< 0.001	< 0.4	COCc1nc(NC(=O)[C@H]2C[C@@H]2c2nccc(C)n2)cc(N(C)Cc2cn3cc(C4CC4)cc(N4CC(=O)N(C)C4=O)c3n2)n1 [Example 354, (1S,2S)-N-(6-(((6-cyclopropyl-8-(3-methyl-2,4-dioxoimidazolidin-1-yl)imidazo[1,2-a]pyridin-2-yl)methyl)(methyl)amino)-2-(methoxymethyl)pyrimidin-4-yl)-2-(4-methylpyrimidin-2-yl)cyclopropane-1-carboxamide]
0.001 to 0.01	1.5 to 10	O=C(Nc1cc(N2C[C@@H](O)C[C@@H]2c2cn3cc(C4CC4)ccc3n2)ccn1)[C@H]1C[C@@H]1c1cccc(Cl)c1 [Example 282, (1S,2S)-2-(3-chlorophenyl)-N-(4-((2R,4S)-2-(6-cyclopropylimidazo[1,2-a]pyridin-2-yl)-4-hydroxypyrrolidin-1-yl)pyridin-2-yl)cyclopropane-1-carboxamide]
< 0.001	0.4 to 1.5	Cc1ccnc([C@H]2C[C@@H]2C(=O)Nc2cc(OCc3cn4cc(C5CC5)cc(N5CC(=O)N(C)C5=O)c4n3)nc(C)n2)n1 [Example 555, (1S,2S)-N-(6-((6-cyclopropyl-8-(3-methyl-2,4-dioxoimidazolidin-1-yl)imidazo[1,2-a]pyridin-2-yl)methoxy)-2-methylpyrimidin-4-yl)-2-(4-methylpyrimidin-2-yl)cyclopropane-1-carboxamide]
< 0.001	1.5 to 10	CN1CCN(c2cc(C3CC3)cn3cc(CNc4cnnc(NC(=O)[C@H]5C[C@@H]5c5cccc(Cl)c5)c4)nc23)CC1 [Example 612, (1S,2S)-2-(3-chlorophenyl)-N-(5-(((6-cyclopropyl-8-(4-methylpiperazin-1-yl)imidazo[1,2-a]pyridin-2-yl)methyl)amino)pyridazin-3-yl)cyclopropane-1-carboxamide]
< 0.001	0.4 to 1.5	O=C(Nc1cc(NCc2cn3cc(C4CC4)cc(N4CCN(C5COC5)CC4)c3n2)ccn1)[C@H]1C[C@@H]1c1cccc(Cl)c1 [Example I-233, (1S,2S)-2-(3-chlorophenyl)-N-(4-(((6-cyclopropyl-8-(4-(oxetan-3-yl)piperazin-1-yl)imidazo[1,2-a]pyridin-2-yl)methyl)amino)pyridin-2-yl)cyclopropane-1-carboxamide]
< 0.001	< 0.4	Cc1ccnc([C@H]2C[C@@H]2C(=O)Nc2cc(NCc3cn4cc(C5CC5)cc(N5C(=O)N(C)C(=O)C56CC6)c4n3)nc(C)n2)n1 [Example 357, (1S,2S)-N-(6-(((6-cyclopropyl-8-(6-methyl-5,7-dioxo-4,6-diazaspiro[2.4]heptan-4-yl)imidazo[1,2-a]pyridin-2-yl)methyl)amino)-2-methylpyrimidin-4-yl)-2-(4-methylpyrimidin-2-yl)cyclopropane-1-carboxamide]
< 0.001	0.4 to 1.5	Cc1ccnc([C@@]2(F)C[C@@H]2C(=O)Nc2cc(N[C@H](C)c3cn4cc(C5CC5)cc(N5CC(=O)N(C)C5=O)c4n3)nc(C)n2)n1 (racemic) [Example 546, rac-(1S*,2S*)—N-(6-(((R)-1-(6-cyclopropyl-8-(3-methyl-2,4-dioxoimidazolidin-1-yl)imidazo[1,2-a]pyridin-2-yl)ethyl)amino)-2-methylpyrimidin-4-yl)-2-fluoro-2-(4-methylpyrimidin-2-yl)cyclopropane-1-carboxamide]
< 0.001	< 0.4	Cc1cc(NCc2cn3cc(C4CC4)cc(N4CC(=O)N(C)C4=O)c3n2)nc(NC(=O)[C@H]2C[C@@H]2c2nccc(C)n2)n1 (racemic) [Example 519, rac-(1S*,2S*)-N-(4-(((6-cyclopropyl-8-(3-methyl-2,4-dioxoimidazolidin-1-yl)imidazo[1,2-a]pyridin-2-yl)methyl)amino)-6-methylpyrimidin-2-yl)-2-(4-methylpyrimidin-2-yl)cyclopropane-1-carboxamide]

— patent US20240228488A1 (TAKEDA PHARMACEUTICAL COMPANY LIMITED, priority 2021, published 2024)
